Literature values, collected in patent US8609668B2, “Substituted triazolo[1,5-A]pyrimidines as antiviral agents” (Philadelphia Health & Education Corporation, priority 2006, dated 2013).

Test system: HBeAg secretion
Conditions: in vivo and in vitro

**Q.** Which “secretion of HBeAg” value does the source give for `O=c1oc2c(O)c(O)cc3c(=O)oc4c(O)c(O)cc1c4c23` [Ellagic acid] here?
**A.** specifically inhibit secretion of HBeAg
